From ChEMBL document CHEMBL5625175, “Quinazoline-based VEGFR-2 inhibitors as potential anti-angiogenic agents: A contemporary perspective of SAR and molecular docking studies” (Eur J Med Chem, 2023) come the findings set out here.

The nature of data set [1]: Antiproliferative activity against human WI-38 cells assessed as reduction in cell growth measured after 24 hrs by MTT assay. The data set is classed as toxicity, cell-based.
In data set [2] the test system is HCT-116. Kind of data set: Antiproliferative activity against human HCT-116 cells assessed as reduction in cell viability measured after 48 hrs by MTT assay. The data set is classed as functional, cell-based. Particulars: HCT-116, 48 h.
The subject of data set [3] is MCF7. Kind of data set: Antiproliferative activity against human MCF7 cells assessed as reduction in cell viability measured after 48 hrs by MTT assay. The data set is classed as functional, cell-based. To be noted: MCF7, 48 h.
Data set [4] addresses T1, Vascular endothelial growth factor receptor 2 (Homo sapiens, UniProt P35968). Kind of data set: Inhibition of VEGFR-2 (unknown origin) by Kinase-Glo Max assay.
Data set [5] deals with HCT-116. Kind of data set: Cytotoxicity against human HCT-116 cells assessed as cell growth inhibition. The class given is functional, cell-based.
The next data set has as its system WISH. Kind of data set: Cytotoxicity against human WISH cells assessed as cell growth inhibition. The data set is classed as functional, cell-based.
In another data set the test system is HepG2. Kind of data set: Cytotoxicity against human HepG2 cells assessed as cell growth inhibition. The data set is classed as functional, cell-based.
Data set [6] concerns MCF7. Kind of data set: Cytotoxicity against human MCF7 cells assessed as reduction in cell growth incubated for 24 hrs by MTT assay. The data set is classed as functional, cell-based. Particulars: MCF7, 24 h.
Data set [7] deals with MCF7. Kind of data set: Induction of cell cycle arrest in human MCF7 cells assessed as reduction in accumulation of cells in G2/M phase at 10 uM incubated for 24 hrs by PI staining based flow cytometry analysis relative to control. The data set is classed as functional. Also noted: scale not given: the % may be the effect or the level left.
The target in data set [8] is T1, Vascular endothelial growth factor receptor 2.
In a further data set the test system is A549. Kind of data set: cells. To be noted: Homo sapiens, A549, 48 h.
The subject of the next data set is NCI-H460. Kind of data set: cells. To be noted: Homo sapiens, NCI-H460, 48 h.
In another data set the test system is Macrophage. Kind of data set: cells. To be noted: Homo sapiens, 48 h.
For data set [9], the system named is MCF7. Kind of data set: Antiproliferative activity against human MCF7 cells assessed as reduction in cell growth incubated for 24 hrs by MTT assay. The data set is classed as functional, cell-based. To be noted: MCF7, 24 h.
Data set [10] concerns HCT-116. Kind of data set: Antiproliferative activity against human HCT-116 cells assessed as reduction in cell growth incubated for 24 hrs by MTT assay. The class given is functional, cell-based. Particulars: HCT-116, 24 h.
A further data set deals with MHCC97H. Kind of data set: Antiproliferative activity against human MHCC97H cells assessed as reduction in cell viability incubated for 48 hrs by CCK-8 assay. The data set is classed as functional, cell-based.
Another data set deals with L02. Kind of data set: Cytotoxicity against human L02 cells assessed as cell growth inhibition measured after 48 hrs by CCK-8 assay. To be noted: L02, 48 h. The class given is functional, cell-based.
In a further data set the test system is HUVEC. Kind of data set: Antiproliferative activity against HUVEC cells assessed as reduction in cell viability incubated for 48 hrs by CCK-8 assay. To be noted: Homo sapiens. The data set is classed as functional, cell-based.
Another data set relates to HEK293. Kind of data set: Cytotoxicity against HEK293 cells assessed as cell growth inhibition measured after 48 hrs by CCK-8 assay. The data set is classed as functional, cell-based. To be noted: Homo sapiens, HEK293, 48 h.
For data set [11], the target named is Vascular endothelial growth factor receptor 3 (Homo sapiens, UniProt P35916). Kind of data set: Inhibition of VEGFR-3 (unknown origin).
Data set [12] deals with Vascular endothelial growth factor receptor 1 (Homo sapiens, UniProt P17948). Kind of data set: Inhibition of VEGFR-1 (unknown origin).
Data set [13] concerns MDA-MB-231. Kind of data set: Cytotoxicity against human MDA-MB-231 cells assessed as reduction in cell viability incubated for 24 hrs by MTT assay. The class given is functional, cell-based. Particulars: MDA-MB-231, 24 h.
The target in data set [14] is T1, Vascular endothelial growth factor receptor 2. This is another data set of the same source.
In data set [15] the test system is MDA-MB-231. Kind of data set: Cytotoxicity against human MDA-MB-231 cells assessed as reduction in cell viability incubated for 48 hrs by MTT assay. The class given is functional, cell-based. Particulars: MDA-MB-231, 48 h.
The nature of data set [16]: Intrinsic clearance in human hepatocytes at 0.5 uM measured after 10 mins by LC-MS/MS analysis. The data set is classed as ADME, cell-based, Hepatocyte.
Data set [17] deals with MCF7. Kind of data set: Antiproliferative activity against human MCF7 cells assessed as cell growth inhibition measured after 48 hrs by MTT assay. The class given is functional, cell-based. Particulars: MCF7, 48 h.
For data set [18], the system named is HCT-116. Kind of data set: Antiproliferative activity against human HCT-116 cells assessed as cell growth inhibition measured after 48 hrs by MTT assay. The class given is functional, cell-based. To be noted: HCT-116, 48 h.
Data set [19] has as its system HCT-116. Kind of data set: cells. To be noted: Homo sapiens, HCT-116, 48 h.
In data set [20] the test system is MCF7. Kind of data set: cells. Particulars: Homo sapiens, MCF7, 48 h.
The test system of another data set is B16. Kind of data set: Antiproliferative activity against mouse B16 cells assessed as reduction in cell viability incubated for 48 hrs by MTT assay. Particulars: B16, 48 h. The data set is classed as functional, cell-based.

Each structure is given as a SMILES string. In brackets after ≈: the same amount, converted by molar mass.

T1 sequence (P35968 whole entry): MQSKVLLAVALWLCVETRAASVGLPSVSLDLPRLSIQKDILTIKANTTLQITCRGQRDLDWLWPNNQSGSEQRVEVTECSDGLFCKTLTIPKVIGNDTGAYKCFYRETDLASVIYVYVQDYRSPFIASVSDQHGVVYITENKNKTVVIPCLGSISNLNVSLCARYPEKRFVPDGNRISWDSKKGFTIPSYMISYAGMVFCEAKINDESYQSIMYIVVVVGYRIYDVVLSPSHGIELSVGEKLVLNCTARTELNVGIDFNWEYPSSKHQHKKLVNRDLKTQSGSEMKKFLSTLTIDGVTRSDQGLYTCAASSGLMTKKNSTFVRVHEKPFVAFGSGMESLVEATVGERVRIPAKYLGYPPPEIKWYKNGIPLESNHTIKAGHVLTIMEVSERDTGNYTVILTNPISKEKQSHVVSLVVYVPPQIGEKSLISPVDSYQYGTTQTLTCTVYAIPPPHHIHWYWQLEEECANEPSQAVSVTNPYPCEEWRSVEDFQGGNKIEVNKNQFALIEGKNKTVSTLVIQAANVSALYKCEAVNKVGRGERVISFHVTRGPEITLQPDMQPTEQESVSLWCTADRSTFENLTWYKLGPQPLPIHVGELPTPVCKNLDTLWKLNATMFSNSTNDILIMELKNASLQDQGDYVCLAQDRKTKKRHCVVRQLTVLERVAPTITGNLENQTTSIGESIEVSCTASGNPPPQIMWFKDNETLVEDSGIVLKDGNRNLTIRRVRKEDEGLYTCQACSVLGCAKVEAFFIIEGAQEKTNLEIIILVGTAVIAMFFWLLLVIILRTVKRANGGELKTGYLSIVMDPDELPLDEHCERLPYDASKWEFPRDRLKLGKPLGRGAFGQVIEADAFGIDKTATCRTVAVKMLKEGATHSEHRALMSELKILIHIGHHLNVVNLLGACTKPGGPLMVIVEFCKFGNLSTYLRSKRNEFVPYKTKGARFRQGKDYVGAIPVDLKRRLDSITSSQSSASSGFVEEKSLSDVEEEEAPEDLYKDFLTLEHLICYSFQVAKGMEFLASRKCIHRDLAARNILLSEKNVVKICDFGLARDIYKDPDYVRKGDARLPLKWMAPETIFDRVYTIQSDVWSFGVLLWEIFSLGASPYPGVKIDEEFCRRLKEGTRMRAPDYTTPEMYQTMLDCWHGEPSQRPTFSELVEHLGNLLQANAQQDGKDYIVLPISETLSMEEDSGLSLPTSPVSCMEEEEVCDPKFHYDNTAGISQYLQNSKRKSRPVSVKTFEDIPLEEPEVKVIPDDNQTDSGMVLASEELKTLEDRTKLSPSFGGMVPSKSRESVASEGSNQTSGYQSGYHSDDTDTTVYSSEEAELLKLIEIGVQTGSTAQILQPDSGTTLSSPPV
Sequence of Vascular endothelial growth factor receptor 1 (P17948 whole entry): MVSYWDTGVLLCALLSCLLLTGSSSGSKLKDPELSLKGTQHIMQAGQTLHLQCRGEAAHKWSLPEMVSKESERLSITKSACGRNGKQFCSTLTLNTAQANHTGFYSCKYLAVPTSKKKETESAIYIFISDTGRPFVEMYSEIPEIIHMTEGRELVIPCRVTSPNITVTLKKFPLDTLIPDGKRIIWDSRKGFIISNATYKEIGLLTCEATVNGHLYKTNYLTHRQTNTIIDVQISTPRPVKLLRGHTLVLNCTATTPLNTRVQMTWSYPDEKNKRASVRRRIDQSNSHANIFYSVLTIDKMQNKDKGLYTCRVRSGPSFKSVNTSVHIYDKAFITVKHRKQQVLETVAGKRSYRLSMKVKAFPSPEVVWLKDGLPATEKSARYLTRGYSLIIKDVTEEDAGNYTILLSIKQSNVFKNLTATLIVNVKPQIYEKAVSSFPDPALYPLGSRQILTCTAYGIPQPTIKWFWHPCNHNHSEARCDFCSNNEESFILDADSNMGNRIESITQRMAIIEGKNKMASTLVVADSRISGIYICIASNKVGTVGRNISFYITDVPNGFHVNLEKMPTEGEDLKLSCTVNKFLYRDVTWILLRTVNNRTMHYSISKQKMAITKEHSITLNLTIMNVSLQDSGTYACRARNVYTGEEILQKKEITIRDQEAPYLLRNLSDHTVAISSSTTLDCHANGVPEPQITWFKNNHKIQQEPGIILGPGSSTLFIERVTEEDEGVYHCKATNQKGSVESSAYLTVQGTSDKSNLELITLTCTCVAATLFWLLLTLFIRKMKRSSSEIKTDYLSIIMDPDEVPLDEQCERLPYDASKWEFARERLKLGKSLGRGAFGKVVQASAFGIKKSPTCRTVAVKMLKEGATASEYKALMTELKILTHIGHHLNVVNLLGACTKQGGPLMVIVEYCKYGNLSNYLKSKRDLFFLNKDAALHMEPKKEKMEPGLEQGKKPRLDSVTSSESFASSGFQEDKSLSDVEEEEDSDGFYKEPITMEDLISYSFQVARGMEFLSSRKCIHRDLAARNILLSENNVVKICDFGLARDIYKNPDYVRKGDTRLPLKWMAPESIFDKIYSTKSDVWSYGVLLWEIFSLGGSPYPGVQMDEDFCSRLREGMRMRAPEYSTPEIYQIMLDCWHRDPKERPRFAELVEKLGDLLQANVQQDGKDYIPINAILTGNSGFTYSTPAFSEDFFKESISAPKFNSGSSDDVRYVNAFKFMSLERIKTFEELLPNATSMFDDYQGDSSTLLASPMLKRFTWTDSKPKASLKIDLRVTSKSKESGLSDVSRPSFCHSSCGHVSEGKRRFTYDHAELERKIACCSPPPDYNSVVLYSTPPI
Sequence of Vascular endothelial growth factor receptor 3 (P35916 whole entry): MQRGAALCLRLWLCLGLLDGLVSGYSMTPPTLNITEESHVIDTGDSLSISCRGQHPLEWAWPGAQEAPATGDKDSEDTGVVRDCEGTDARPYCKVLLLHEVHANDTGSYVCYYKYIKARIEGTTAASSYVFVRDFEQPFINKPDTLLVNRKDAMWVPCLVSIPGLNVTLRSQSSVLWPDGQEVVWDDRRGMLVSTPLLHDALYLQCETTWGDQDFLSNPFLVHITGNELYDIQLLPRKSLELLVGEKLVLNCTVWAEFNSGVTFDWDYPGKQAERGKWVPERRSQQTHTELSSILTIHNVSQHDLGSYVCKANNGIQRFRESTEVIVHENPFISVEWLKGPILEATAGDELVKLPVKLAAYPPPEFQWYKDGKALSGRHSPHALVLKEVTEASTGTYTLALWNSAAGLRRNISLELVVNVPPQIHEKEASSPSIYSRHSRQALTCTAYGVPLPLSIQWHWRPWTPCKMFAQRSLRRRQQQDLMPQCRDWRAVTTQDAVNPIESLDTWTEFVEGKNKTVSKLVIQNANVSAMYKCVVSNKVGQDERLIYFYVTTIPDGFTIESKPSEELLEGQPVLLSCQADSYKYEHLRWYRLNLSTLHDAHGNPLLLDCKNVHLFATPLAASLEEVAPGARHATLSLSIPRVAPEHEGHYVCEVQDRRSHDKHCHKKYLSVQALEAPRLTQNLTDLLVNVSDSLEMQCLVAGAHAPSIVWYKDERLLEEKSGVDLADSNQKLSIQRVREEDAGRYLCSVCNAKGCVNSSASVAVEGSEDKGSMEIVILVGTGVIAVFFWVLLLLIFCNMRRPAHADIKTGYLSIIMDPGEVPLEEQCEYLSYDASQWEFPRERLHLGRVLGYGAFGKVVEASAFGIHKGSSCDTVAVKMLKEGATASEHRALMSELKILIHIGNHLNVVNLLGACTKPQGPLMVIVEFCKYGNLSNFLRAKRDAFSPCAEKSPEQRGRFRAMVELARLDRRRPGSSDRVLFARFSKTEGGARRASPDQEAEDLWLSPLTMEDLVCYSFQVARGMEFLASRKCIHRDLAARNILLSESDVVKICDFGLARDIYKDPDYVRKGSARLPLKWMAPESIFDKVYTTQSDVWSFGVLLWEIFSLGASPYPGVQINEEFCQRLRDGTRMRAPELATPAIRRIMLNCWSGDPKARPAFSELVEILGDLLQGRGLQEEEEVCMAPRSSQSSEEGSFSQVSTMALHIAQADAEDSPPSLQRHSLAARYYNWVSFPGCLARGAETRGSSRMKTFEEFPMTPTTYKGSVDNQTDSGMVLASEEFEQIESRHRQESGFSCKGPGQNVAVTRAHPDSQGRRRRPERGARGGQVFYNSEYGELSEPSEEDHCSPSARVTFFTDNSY

As for `CCn1c(SCC(=O)NNC(=O)c2ccccc2)nc2ccc([N+](=O)[O-])cc2c1=O`, the IC50 at 24 h in data set [1] was found to be 146 µg/mL (≈ 341 µM).

Turning to `O=C(CSc1nc2ccc(Cl)cc2c(=O)n1-c1ccccc1)N/N=C/c1cccc(F)c1`, the IC50 in the data set with HCT-116 [2] stood at 1.58 µM; in the data set with MCF7 [3], 9.63 µM.

Take `CNC(=O)c1c(C)oc2cc(Oc3ncnc4cc(OC)c(OC)cc34)ccc12` [FRUQUINTINIB]: half-maximal inhibition in data set [4] (IC50) required 0.035 µM.

With `Cc1ccc2nc(-c3cccnc3)nc(NNC(=S)NC3CCCCC3)c2c1`, the IC50 with HCT-116 [5] was determined as 3.37 µM; in the data set with WISH it was 49.6 µM; in the data set on HepG2, 10.4 µM.

Consider `NS(=O)(=O)c1ccc(-n2c(SCC(=O)N/N=C/c3ccc(Cl)cc3Cl)nc3cc4ccccc4cc3c2=O)cc1`, for which the IC50 with MCF7 [6] was 0.1 µM; in [8] it was 0.64 µM. Also, the Activity in the data set with MCF7 [7] came to 24.17%.

As to `COc1cc2nccc(Oc3ccc(NC(=O)Nc4cc(C)on4)c(Cl)c3)c2cc1OC` [TIVOZANIB], the values for the IC50 in the data set on A549, with NCI-H460 and in the data set with Macrophage were 0.62 µM, 0.39 µM and 227 µM, respectively.

On to `CCn1c(SCC(=O)Nc2ccc(/C(C)=N/O)cc2)nc2ccccc2c1=O`, for which the figures for the IC50 in the data set on MCF7 [9] and with HCT-116 [10] were 4.58 µM and 4.83 µM, respectively.

Take `COc1cc2ncnc(Oc3ccc(NC(=O)C4(C(=O)Nc5ccc(F)cc5)CC4)cc3F)c2c2c1OCCO2`: the IC50 was 58.6 µg/mL (≈ 107 µM) in the data set with MHCC97H, 12.6 µg/mL (≈ 23 µM) in the data set on L02, 3.7 µg/mL (≈ 6.75 µM) in the data set on HUVEC and 15.1 µg/mL (≈ 27.5 µM) with HEK293.

As to `CCCNC(=O)Nc1ccc(Nc2ncnc3cc(OC)c(OC)cc23)cc1Cl`, the IC50 was found to be 0.125 µM in [11], 0.17 µM in [12] and 0.16 µM in data set [8].

With `COc1cccc(CNC(=O)CSc2nc3ccccc3c(=O)n2-c2ccc(S(N)(=O)=O)cc2)c1OC`, the IC50 was found to be 0.34 µM with MDA-MB-231 [13], 0.247 µM in data set [14] and 0.51 µM in the data set with MDA-MB-231 [15].

As to `COCCOc1cc2ncnc(Oc3ccc(NC(=O)C4(C(=O)Nc5ccc(F)cc5)CC4)cc3F)c2c2c1OCCO2`, the IC50 in the data set on MHCC97H turned out to be 15.1 µg/mL (≈ 25.5 µM); with L02 it was 12.2 µg/mL (≈ 20.6 µM); in the data set on HUVEC it was 12.6 µg/mL (≈ 21.3 µM); with HEK293 it was 11.9 µg/mL (≈ 20.1 µM).

Turning to `COc1cc2ncnc(Nc3cc(O)c(C)cc3F)c2cc1OC`, in data set [16], the CLH came to 91.9 µL/min.

As for `C/C(=N\NC(=O)c1ccccc1O)c1ccc(NC(=O)CSc2nc3ccccc3c(=O)n2-c2ccccc2)cc1`, the IC50 stood at 6.77 µM in the data set on MCF7 [17] and 5 µM with HCT-116 [18].

As to `CNC(=O)c1cc(Oc2ccc(NC(=O)Nc3ccc(Cl)c(C(F)(F)F)c3)cc2)ccn1` [SORAFENIB], the IC50 in the data set with HCT-116 [5] was 6.82 µM; with HCT-116 [19], 10.6 µM; in the data set on MCF7 [20] it was 17.9 µM; in the data set on WISH it was 17.5 µM; in the data set on B16, 9.29 µM; with HepG2, 19.3 µM.
